This test concerns lung ILCs. The test is described as follows: culture of sort-purified lung ILCs with IL-7, IL-33 or IL-25+NMU with or without CGRP (qPCR, LegendPlex, intracellular cytokine staining). The test is classed as cell-based, mouse. How it is done: ILC in vitro culture. For in vitro experiments 5,000 ILCs/well were cultured in a 96 well round bottom plate with 20 ng/ml IL-7 (R&D Systems), 200 ng/ml IL-25 (R&D Systems) or 20 ng/ml, 2 ng/ml or 0.2 ng/ml IL-33 (BioLegend) with or without 1 μg/ml Neuromedin U (US Biological). In some cases purified CD90.2^+ lung cells were first labeled with CellTrace Violet (Thermo Fisher Scientific), then sorted as described above, and cultured for 3 days under the indicated conditions.
Quantitative real-time PCR. RNA was isolated using RNeasy Plus Mini Kit (Qiagen) and reverse transcribed to cDNA with iScript cDNA Synthesis Kit (Bio-Rad). Gene expression was analyzed by quantitative real-time PCR on a ViiA7 System (Thermo Fisher Scientific) using TaqMan Fast Advanced Master Mix (Thermo Fisher Scientific) with the following primer/probe sets: Il5 (Mm00439646_m1), Il13 (Mm00434204_m1), Il17rb (Mm00444709_m1), Nmur1 (Mm04207994_m1), Nmur2 (Mm00600704_m1), Nmu (Mm00479868_m1) and Actb (Applied Biosystems). Expression values were calculated relative to Actb detected in the same sample by duplex qPCR.
Cytokine quantification. Cytokine concentrations in BAL fluid, lung and supernatant of in vitro ILC cultures were analyzed by the LegendPlex Mouse Th Cytokine Panel (13-plex) (BioLegend) according to the manufacturer's instructions and analyzed on a FACS Calibur (BD Biosciences).
Culture of innate lymphoid cells. Sort-purified innate lymphoid cells (ILCs) were cultured under sterile conditions in complete medium in a humidified incubator at 37° C. and 10% CO2. ILCs were plated at a density of 3,000-5,000 ILCs per well in a 96 well round-bottom plate in cell culture medium with 20 ng/ml IL-7. Depending on the experiment, different combinations of 200 ng/ml IL-25, 200 ng/ml IL-33, 1 ug/ml NMU and 100 nM CGRP were added either at start or after overnight culture with 20 ng/ml IL-7. […]
For flow cytometric analysis, lung cells were transferred into a 96 well V-bottom plate and stained with surface antibodies for 20 min at 4° C. in the dark. Cells were washed twice with DPBS containing 2% fetal bovine serum and transferred into 1.2 ml tubes for analysis by flow cytometry. For intracellular cytokine staining, cells were incubated in complete cell culture medium with 50 ng/ml phorbol 12-myristate 13-acetate (Sigma-Aldrich), 1 uM ionomycin (Sigma-Aldrich) and GolgiStop (Cat #554724; BD Biosciences) in a humidified incubator at 37° C. and 10% CO2. After 5 hours, cells were transferred into 96 well V-bottom plate, stained with Fixable Viability Dye eFluor 506 (Cat #65-0866-14; Thermo Fisher) and surface antibodies for 20 min at 4° C. in the dark and washed twice with DPBS containing 2% fetal bovine serum. Then, cells were incubated with BD Cytofix/Cytoperm Buffer (Cat #51-2090KZ; BD Biosciences) for 20 min, followed by a wash with BD Perm/Wash Buffer (Cat #51-2091KZ; BD Biosciences). Subsequently, cells were incubated with antibodies targeting intracellular proteins diluted in BD Perm/Wash Buffer for 20 min and after two wash steps, transferred into 1.2 ml tubes for analysis by flow cytometry. For ki67 staining, cells were stained for surface antibodies as described above, fixed with a solution of Fixation/Permeabilization Concentrate (Cat #00-5123-43; Invitrogen) and Fixation/Perm Diluent (Cat #00-5223-56; Invitrogen) for 20 min, washed with Permeabilization Buffer (Cat #00-8333-56; Invitrogen). Then, cells were incubated with ki67 antibody diluted in Permeabilization Buffer for 20 min, washed and transferred into FACS tubes. Cells were analyzed on a BD LSRFortessa (BD Biosciences) flow cytometer with 5 lasers (355 nm, 405 nm, 488 nm, 561 nm and 640 nm). Data was analyzed using FlowJo v10.5.0 software and cell populations were gated as described previously (Wallrapp 2017).
RNA isolation and cDNA synthesis. […]

[1] abbreviates: IL-7+CGRP vs IL-7 alone, 6 hours.
Where [2] appears, read: IL-33+CGRP vs IL-33 alone, 6 hours.
Where [3] appears, read: IL-33+CGRP vs IL-33 alone, 3 days.
The mark [4] stands for this setting: IL-33+CGRP vs IL-33 alone, 3 days culture.

“Also recorded” adds a separate entry of the source.

Take “CGRP: neuropeptide calcitonin gene-related peptide (encoded by Calca), ligand of the Ramp1/Calcrl receptor; given at 100 nM in vitro, 6.65 ug nasally”: under setting [1], the “Il5 expression in ILC2s (qPCR)” value is listed as “upregulated”, the “Il13 expression in ILC2s (qPCR)” value is on record as “downregulated” and the “amphiregulin (Areg) expression in ILC2s (qPCR)” value is “trend of increased expression”. In addition, the “type 2 cytokine (IL-5, IL-13) production at mRNA and protein level in ILCs” value (IL-25+NMU+CGRP vs IL-25+NMU, 3 days) is listed as “significantly reduced”. Under setting [2], the “Areg expression in ILC2s (qPCR)” value is reported as “significantly increased”, the “Il5 expression in ILC2s (qPCR)” value is recorded as “significantly increased” and the “Il13 expression in ILC2s (qPCR)” value is recorded as “significantly decreased”. For the same substance, under setting [3], the “IL-13 produced per cell (MFI)” value is reported as “less”, the “amount of IL-5 expressed per cell (MFI)” value was “significant decreases”, the “frequency of IL-5-producing ILCs (flow cytometry)” value is reported as “significant decreases” and the “frequency of IL-13+ ILCs (flow cytometry)” value is listed as “lower”. For the same substance, under setting [4], the “Areg expression in ILCs (qPCR)” value was “increased”; the “IL-5 production at RNA and protein level in ILCs” value is “reduces; also recorded: significantly reduced”; the “IL-13 production at RNA and protein level in ILCs” value is recorded as “reduces; also recorded: significantly reduced; also recorded: remains repressed”. Also, the “IL-5 protein production (intracellular cytokine staining)” value (short-term (8 hours) CGRP+IL33 vs IL-33 alone) is “induced”. The “frequency of IL-13-positive ILC2s (intracellular cytokine staining)” value (short-term (8 hours) treatment with CGRP+IL33) was 2%.

Values taken from patent US20210386829A1, “COMPOSITIONS AND METHODS FOR MODULATING CGRP SIGNALING TO REGULATE INNATE LYMPHOID CELL INFLAMMATORY RESPONSES” (The Broad Institute, Inc., priority 2018, published 2021).
